Article PMC10450187, “Ncs2* mediates in vivo virulence of pathogenic yeast through sulphur modification of cytoplasmic transfer RNA” (Nucleic Acids Research, 2023)

T1: CtNcs2 (Thermochaetoides thermophila, UniProt G0SFJ9)
T1 construct: gene NCS2; codon-optimized, E. coli BL21(DE3) pRARE, pETM30 N-terminal 6xHis-GST tag (TEV-cleavable, optionally cleaved), GSTrap, heparin, size exclusion
T1 sequence (G0SFJ9 1-406): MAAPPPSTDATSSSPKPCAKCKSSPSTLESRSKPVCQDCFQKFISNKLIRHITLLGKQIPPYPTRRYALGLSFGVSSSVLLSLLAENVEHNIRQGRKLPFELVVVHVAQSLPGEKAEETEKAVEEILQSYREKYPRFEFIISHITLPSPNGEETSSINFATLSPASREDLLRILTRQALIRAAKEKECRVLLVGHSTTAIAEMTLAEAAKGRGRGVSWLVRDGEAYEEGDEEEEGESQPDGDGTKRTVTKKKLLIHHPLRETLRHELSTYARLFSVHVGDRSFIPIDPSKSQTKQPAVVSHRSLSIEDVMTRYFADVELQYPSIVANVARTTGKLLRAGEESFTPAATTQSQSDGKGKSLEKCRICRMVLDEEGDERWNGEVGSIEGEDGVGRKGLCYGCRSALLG


What was measured:
CtNcs2 = biological target: T1, CtNcs2; assay: thermal shift assay (SYPRO Orange); assay type: binding; settings: 2 mM MgCl2, 20 mM Tris pH 8, 150 mM NaCl, 1 mM DTT
[1] = biological target: Ncs6 (Needs-Cla4-to-Survive 6), S. cerevisiae (S. cerevisiae, UniProt P53088 1-359); assay: two-hybrid; settings: partners not purified
Ncs6 (Needs-Cla4-to-Survive 6), S. cerevisiae, sequence (P53088 whole entry): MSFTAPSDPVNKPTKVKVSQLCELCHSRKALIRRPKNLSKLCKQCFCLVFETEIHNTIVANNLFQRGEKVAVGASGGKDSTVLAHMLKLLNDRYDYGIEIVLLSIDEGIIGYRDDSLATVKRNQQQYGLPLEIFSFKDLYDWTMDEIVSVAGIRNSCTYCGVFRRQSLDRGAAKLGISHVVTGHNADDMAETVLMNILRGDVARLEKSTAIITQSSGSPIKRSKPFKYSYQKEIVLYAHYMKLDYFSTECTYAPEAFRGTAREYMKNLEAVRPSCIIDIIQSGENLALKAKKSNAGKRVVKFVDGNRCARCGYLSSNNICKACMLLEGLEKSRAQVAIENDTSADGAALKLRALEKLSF

Molecule | Miller units (beta-galactosidase, two-hybrid) [1] [MU] | other results
Nc1ncnc2c1ncn2[C@@H]1O[C@H](COP(=O)(O)OP(=O)(O)OP(=O)(O)O)[C@@H](O)[C@H]1O [ATP] |  | melting temperature (CtNcs2; 1 mM ATP): stability of Ncs2 increases significantly, when it is bound to ATP, ADP or the non-hydrolysable AMP-PNP
Nc1ncnc2c1ncn2[C@@H]1O[C@H](COP(=O)(O)OP(=O)(O)O)[C@@H](O)[C@H]1O [ADP] |  | melting temperature (CtNcs2; 1 mM ADP): stability of Ncs2 increases significantly, when it is bound to ATP, ADP or the non-hydrolysable AMP-PNP
Nc1ncnc2c1ncn2[C@@H]1O[C@H](COP(=O)(O)OP(=O)(O)NP(=O)(O)O)[C@@H](O)[C@H]1O [AMP-PNP] |  | melting temperature (CtNcs2; 1 mM AMP-PNP): stability of Ncs2 increases significantly, when it is bound to ATP, ADP or the non-hydrolysable AMP-PNP
Ncs2* (Ncs2 H71L), S. cerevisiae (natural protein) MECQRCPASARNPATVESRKEKFCDECFIKFVSTKQRKQMMKDEYFRNLFKVIYPFEKEGSVSKILLPLSLSDSGSLVMLDIVHDLLLEQTKQHNNRTGFTVDVLTVFTEENVSVIKERMESLINEKMSQLNKISNIFNVHFIDVNEFFNNASEVSTFIIDNENFEIFSKSKSVDDSNILTLKEILGKYCLNNSSRSDLISIIKTQLIKHFAYENGYNAIMWGHSMTKLSEVIISLVVKGKGSQIATFLDSESFDTLNNKPCKYKNLYPMKDLLSVEIESFLQIRNLAQFLINVEETNVKPNCLIARKSLPSLGQQKLVKNMTINEITNKYFQDIQNDYSNIISTVLRTADKLTQPKSSMAKPSQCQICQSKIYTNPSNWLNRITVTSPYPVETTEEKYLFKQWQDSKLGQSHTHYVELLNEIKQGASNSLDVEDGDVKLCYGCLILLNTSIKDKNLVWPKVDTMDITANATNKNKELSQILDQFEINSDGEE | 252 | 
Ncs2^H71A, S. cerevisiae (natural protein) MECQRCPASARNPATVESRKEKFCDECFIKFVSTKQRKQMMKDEYFRNLFKVIYPFEKEGSVSKILLPLSASDSGSLVMLDIVHDLLLEQTKQHNNRTGFTVDVLTVFTEENVSVIKERMESLINEKMSQLNKISNIFNVHFIDVNEFFNNASEVSTFIIDNENFEIFSKSKSVDDSNILTLKEILGKYCLNNSSRSDLISIIKTQLIKHFAYENGYNAIMWGHSMTKLSEVIISLVVKGKGSQIATFLDSESFDTLNNKPCKYKNLYPMKDLLSVEIESFLQIRNLAQFLINVEETNVKPNCLIARKSLPSLGQQKLVKNMTINEITNKYFQDIQNDYSNIISTVLRTADKLTQPKSSMAKPSQCQICQSKIYTNPSNWLNRITVTSPYPVETTEEKYLFKQWQDSKLGQSHTHYVELLNEIKQGASNSLDVEDGDVKLCYGCLILLNTSIKDKNLVWPKVDTMDITANATNKNKELSQILDQFEINSDGEE | 130 | 
Ncs2^H71I, S. cerevisiae (natural protein) MECQRCPASARNPATVESRKEKFCDECFIKFVSTKQRKQMMKDEYFRNLFKVIYPFEKEGSVSKILLPLSISDSGSLVMLDIVHDLLLEQTKQHNNRTGFTVDVLTVFTEENVSVIKERMESLINEKMSQLNKISNIFNVHFIDVNEFFNNASEVSTFIIDNENFEIFSKSKSVDDSNILTLKEILGKYCLNNSSRSDLISIIKTQLIKHFAYENGYNAIMWGHSMTKLSEVIISLVVKGKGSQIATFLDSESFDTLNNKPCKYKNLYPMKDLLSVEIESFLQIRNLAQFLINVEETNVKPNCLIARKSLPSLGQQKLVKNMTINEITNKYFQDIQNDYSNIISTVLRTADKLTQPKSSMAKPSQCQICQSKIYTNPSNWLNRITVTSPYPVETTEEKYLFKQWQDSKLGQSHTHYVELLNEIKQGASNSLDVEDGDVKLCYGCLILLNTSIKDKNLVWPKVDTMDITANATNKNKELSQILDQFEINSDGEE | 109 | 
